Like-named read-outs stand apart in the source and are kept apart here.
Columns and labels:
[1] = Acute toxicity (LD50) by mice; details: mouse, in vivo, ip
[2] = system: B16 subline of high pulmonary metastatic potential; details: Table 5, B16 subline, 3 days;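 note: + means growth and ± means marked inhibition and - means cell death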
Experimental: (§1) The B16 subline of high pulmonary metastatic potential and murine tumor cell line L 929 were cultured in DME medium supplemented with 10% bovine fetal serum at 37° C. in the presence of 5% CO2. Then, cells were detached from the Petri dish with trypsin-EDTA solution. The B16 subline and L 929 were suspended in the medium described above in 1×10^4 cells/ml and 1×10^3 cells/ml, respectively. Each suspension, 150 μl, was added to 50 μl of N-(3-phenylpropyl)-1-deoxynojirimycin solution or Adriamycin (control) solution. Incubation was performed for 3 days for the B16 subline and for 4 days for L 929 strain.
as §1, with “of N-(4-phenoxy-trans-2-butenyl)-1-deoxynojirimycin” for “of N-(3-phenylpropyl)-1-deoxynojirimycin”, “days in” for “days for”, “L 929.” for “L 929 strain.”
as §1, with “of D-glucaro-δ-lactam calcium salt” for “of N-(3-phenylpropyl)-1-deoxynojirimycin”, “(control) solutions.” for “(control) solution.”, “days in” for “days for”, “L 929.” for “L 929 strain.”
The B16 subline of high pulmonary metastatic potential and murine tumor cell line L 929 were cultured in DME medium supplemented with 10% bovine fetal serum at 37° C. in the presence of 5% CO2. Then, cells were detached from the Petri dish with trypsin-EDTA solution. The B16 subline and L 929 were suspended in the medium described above in 1×10^4 cells/ml and 1×10^3 cells/ml, respectively. Each suspension, 150 μl, was added to 50 μl of 2,6-di-O-(1-(p-chlorobenzoyl)-5-methoxy-2-methylindole-3-acetyl)-D-gluco-δ-lactam solution or and Adriamycin (control) solutions. Incubation was performed for 3 days in the B16 subline and for 4 days in L 929.
The B16 subline of high pulmanary metastatic potential and murine tumor cell line L 929 were cultured in DME medium supplemented with 10% bovine fetal serum at 37° C. in the presence of 5% CO2. Then, cells were detached from the Petri dish with trypsin-EDTA solution. The B16 subline and L 929 were suspended in the medium described above in 1×10^4 cells/ml and 1×10^3 cells/ml, respectively. Each suspension, 150 μl, was added to 50 μl of 6-O-triphenylmethyl-D-gluco-δ-lactam solution or Adriamycin (control) solutions. Incubation was performed for 3 days in the B16 sibline and for 4 days in L 929.
The B16 subline of high pulmonary metastatic potential was inoculated into DME medium supplemented with 10% bovine fetal serum and 30 μg/ml of 1-deoxynojirimycin was added thereto followed by incubation at 37° C. for 3 days in the presence of 5% CO2. […] Next, the cells were detached from the Petri dish with trypsin-EDTA solution. The cells were suspended in PBS- in 1×10^6 cells/ml as viable cells. This suspension, 0.1 ml, was intravenously injected in the tail vein of the mouse BDF1 (8 week age, male; 1 group, 3 mice). After feeding for 14 days, the mouse was sacrificed to excise the lungs. The number of colonies of the B16 subline on the surface of and in the lungs was counted.

[3] = system: murine tumor cell line L 929; test: Cytotoxic activity against L 929 (growth observed with inverted microscope, 4 days); type: cell-based; details: for Growth: 4 days;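 for growth: + means growth and ± means marked inhibition and - means cell death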
Experimental: The B16 subline of high pulmonary metastatic potential and murine tumor cell line L 929 were cultured in DME medium supplemented with 10% bovine fetal serum at 37° C. in the presence of 5% CO2.
The B16 subline of high pulmanary metastatic potential and murine tumor cell line L 929 were cultured in DME medium supplemented with 10% bovine fetal serum at 37° C. in the presence of 5% CO2.

[4] = system: B16 subline of high pulmonary metastatic potential; test: Inhibition of pulmonary metastasis of B16 subline pretreated with compound and injected i.v. into BDF1 mice; type: in vivo, murine; mouse BDF1
Experimental: Based on the method described priviously (Method in Cancer Research, 15, 399-439, 1978), a subline of high metastatic potential (high pulmonary colonization) was selected from murine melanoma B16 by repeating the i.v. transplantation of the tumor cells in BDF1 mice and the isolation of pulmonary metastatic clones.
Evaluation of the metastasis inhibiting activity was performed based on the method described previously (Proc. Natl Acad. Sci. USA, 83, 1752-1756, 1986, Cancer Research, 46, 858-862, 1986).
Firstly, the B16 subline of high metastatic potential was inoculated into Dulbecco's ME medium (DME medium) supplemented with 10% bovine fetal serum and the compound represented by general formula (I) described above was added thereto.
The B16 subline of high pulmonary metastatic potential was inoculated into DME medium supplemented with 10% bovine fetal serum and 30, 100 or 300 μg/ml of N (3-phenylpropyl)-1-deoxynojirimycin was added thereto followed by incubation at 37° C. for 3 days in the presence of 5% CO2.
Inhibition of metastasis was examined in a manner similar to Test Example 2 except that N-(3-phenyl-2-propenyl)-1-deoxy-nojirimycin and N-(3-p-chlorophenyl-3-methyl-2-propenyl)-1-deoxynojirimycin were used instead of N-(3-phenylpropyl)-1-deoxynojirimycin in Test Example 2. In this test example, however, 2.5×10^5 cells each of the B16 subline were transplanted to 3 mice for each group.
The B16 subline of high pulmonary metastatic potential was inoculated into DME medium supplemented with 10% bovine fetal serum and 30 μg/ml of N-(4-phenoxy-trans-2-butenyl)-1-deoxynojirimycin was added thereto followed by incubation at 37° C. for 3 days in the presence of 5% CO2. […] The number of colonies of the B16 subline formed on the surface of and in the lung was counted.
Inhibition of metastasis was examined in a manner similar to Test Example 5 except that N-(2-phenoxyethyl)-1-deoxynojirimycin was used instead of N-(4-phenoxy-trans-2-butenyl)-1-deoxynojirimycin in Test Example 5.
The B16 sibline of high pulmonary metastatic potential was inoculated into DME medium supplemented with 10% bovine fetal serum and 10 μg/ml of D-glucaro-δ-lactam calcium salt was added thereto followed by incubation at 37° C. for 3 days in the presence of 5% CO2. […] The number of the colonies formed on the surface of and in the lung was counted.
Inhibition of metastasis was examined in a manner similar to Test Example 8 except that D-glucaro-δ-lactam methyl ester and D-glucaro-δ-lactam ethyl ester were used instead of D-glucaro-δ-lactam calcium salt in Test Example 8.
The B16 subline of high pulmonary metastatic potential was inoculated into DME medium supplemented with 10% bovine fetal serum and 10 μg/ml of 2,6-di-O-(acetylsalicyloyl)-D-gluco-δ-lactam was added thereto followed by incubation at 37° C. for 3 days in the presence of 5% CO2.
The B16 subline of high pulmonary metastatic potential was inoculated into DME medium supplemented with 10% bovine fetal serum and 30 μg/ml of 6-O-triphenylmethyl-D-gluco-δ-lactam was added thereto followed by incubation at 37° C. for 3 days in the presence of 5% CO2.
The B16 subline of high pulmonary metastatic potential was inoculated into DME medium supplemented with 10% bovine fetal serum and 30 μg/ml of 1-deoxynojirimycin was added thereto followed by incubation at 37° C. for 3 days in the presence of 5% CO2.

OC[C@@H]1[C@@H](O)[C@H](O)[C@@H](O)CN1C/C=C/COc1ccccc1 [N-(4-phenoxy-trans-2-butenyl)-1-deoxynojirimycin]
LD50 [1]: > 500 mg/kg
Growth ([2]; 3 μg/ml): +
Growth ([2]; 10 μg/ml): +
Growth ([2]; 30 μg/ml): +
Cytotoxicity (in words) ([3]; L 929, even at a concentration as high as 30 μg/ml): did not show the marked cytotoxicity
Growth ([3]; Table 5, L 929, 3 μg/ml): +
Growth ([3]; Table 5, L 929, 30 μg/ml): +
Growth ([3]; Table 5, L 929, 100 μg/ml): +
Inhibition of metastasis to the lungs (in words) ([4]; B16 subline, BDF1 mice): the number of colonies on the surface of and in the lungs was decreased
Pulmonary Metastasis, Mouse 1 ([4]; Table 6, 10 μg/ml, 14 days): 14 no.
Pulmonary Metastasis, Mouse 2 ([4]; Table 6, 10 μg/ml, 14 days): 48 no.
Pulmonary Metastasis, Mouse 3 ([4]; Table 6, 10 μg/ml, 14 days): 52 no.
Pulmonary Metastasis, Mean ± Standard Derivation ([4]; Table 6, 10 μg/ml, 14 days, None 135 ± 13.4): 38 ± 20.9 no.
Pulmonary Metastasis, % ([4]; Table 6, 10 μg/ml, None = 100): 28.1%

— US4985445A, “Cancer cell metastasis inhibitors and novel compounds” (Meiji Seika Kaisha, Ltd., priority 1988, dated 1991)
